Measured values reported in article PMC12068934 (Nature chemistry, 2024).

Experiments:
SenA = SenA (Variovorax paradoxus, UniProt A0ACH4EUD1); assay: preparative enzymatic synthesis, product NMR; type: biochemical; details: DTT 20 mM, pH 8, room temperature, 24 h
OvsA = OvsA (Vreelandella halophila, UniProt A0A9X4Y9G9); assay: LC-MS after mBBr derivatization; type: biochemical; details: histidine 1 mM, DTT 4 mM, pH 8, room temperature

Compound	preparative enzymatic synthesis, product NMR (SenA; hercynine 5 mM)	LC-MS after mBBr derivatization (OvsA)	preparative enzymatic synthesis, product NMR (SenA; SeGlcNAc 6 mM)
CC(=O)N[C@@H]1[C@@H](O)[C@H](O)[C@@H](CO)O[C@H]1[SeH] [SeGlcNAc, N-acetyl-1-seleno-β-D-glucosamine]	large-scale reaction containing SenA and its substrates hercynine and SeGlcNAc	reaction of the NHISS with SeGlcNAc and histidine resulted in rapid formation of a species	–
C[N+](C)(C)[C@@H](Cc1cnc[nH]1)C(=O)[O-] [hercynine, Nα-trimethylhistidine]	–	–	large-scale reaction containing SenA and its substrates hercynine and SeGlcNAc
